These results are taken from publication PMC5729429, “Gimatecan exerts potent antitumor activity against gastric cancer in vitro and in vivo via AKT and MAPK signaling pathways” (Journal of Translational Medicine, 2017).

Counter-ions that a name gives are not always drawn.

One assay relates to SNU-1 cells. Put plainly: Cell viability assay (CCK-8), SNU-1. Type of assay: cell-based. Particulars: Homo sapiens, SNU1, Fig. 1a 48 h exposure, 0–1 µM, read-out: IC50 antiproliferative effect. The protocol: (§1) Human GC cell lines SNU-1, HGC27 and MGC803 were purchased from Peking Union Medical College, and the NCI-N87 cell line was a gift from You-yong Lv, Ph.D. (Peking University Cancer Hospital and Institute). Cells were cultured in RPMI 1640 medium and Dulbecco’s Modified Eagle Medium (Gibco-BRL, MD, USA), respectively, supplemented with 10% fetal bovine serum (Gibco-BRL), 100 U/ml penicillin (Gibco-BRL) and […] streptomycin (Gibco-BRL). Cells were incubated in a humidified incubator (37 °C) supplemented with 5% CO2.
(§2) SNU-1, HGC27, MGC803 and NCI-N87 cells (5000 cells/well) were seeded in 96-well plates and incubated overnight in complete medium, followed by exposure to gimatecan (0–1 µM) or irinotecan (0–1 µM) for 24, 48, or 72 h. Cell viability was measured using a Cell Counting Kit-8 (Dojindo, Kumamoto, Japan) according to the manufacturer’s instructions. Absorbance at 450 nm was measured using a microplate spectrophotometer. All experiments were repeated at least three times.

The subject of a further assay is Bak, Bcl-2, cleaved PARP. The experiment in a line: Western blot of Bak, Bcl-2, PARP in GC cells. Type of assay: cell-based, human. The following applies: SNU-1 and HGC27. The method, then:
SNU-1, HGC27 and NCI-N87 cells were starved in serum-free medium overnight, exposed to inhibitors for 48 h and harvested at 70–80% confluence. Total protein was extracted from cells or xenograft tissues on ice, using RIPA Lysis Buffer (Beyotime, Shanghai, China) supplemented with complete protease inhibitor and phosphatase inhibitor cocktail (Roche, Basel, Switzerland). Protein concentration was measured using a BCA Protein Assay Kit (Beyotime, Shanghai, China), and 50 μg protein from each sample was separated by 10% SDS-PAGE. After transfer to nitrocellulose membranes (GE Healthcare, Piscataway, NJ), samples were incubated with corresponding primary antibodies diluted in 5% BSA at 4 °C overnight and then with secondary antibodies at room temperature for 1 h. […] Western-blotting bands were quantified and normalized by ImageJ software.
Cells were treated with gimatecan (0–1 µM) and irinotecan (0–1 µM) for 24 h and stained with Annexin V-PE/7-AAD. Sums of percentages of early apoptosis (Q3) and late apoptosis (Q2) were calculated as the total apoptosis ratios. c, d Pro- and anti-apoptotic proteins including Bcl-2, Bak, PARP and cleaved PARP were assessed by western-blotting in SNU-1 and NCI-N87 cells. Western-blotting bands were quantified and normalized by ImageJ. […]
In general terms: In western blotting, separated proteins are transferred to a membrane and probed.

A further assay relates to HGC27 cells. Put plainly: Cell viability assay (CCK-8), HGC27. The class given is cell-based. The following applies: Homo sapiens, HGC-27, Fig. S1A 48 h exposure, 0–1 µM, read-out: IC50 antiproliferative effect. The method, then:
as §1, §2

The next assay concerns NCI-N87 cells. The experiment in a line: Cell viability assay (CCK-8), NCI-N87. The class given is cell-based. The following applies: Homo sapiens, Fig. 1a 48 h exposure, 0–1 µM, read-out: IC50 antiproliferative effect. The method, then: as §1, §2

For orientation: IC50 means the concentration at which inhibition is half-maximal. For `CC[C@@]1(O)C(=O)OCc2c1cc1n(c2=O)Cc2c-1nc1ccccc1c2/C=N/OC(C)(C)C` [Gimatecan, 7-t-butoxyiminomethylcamptothecin], the figures for the IC50 in the assay on SNU-1 cells, in the assay on HGC27 cells and with NCI-N87 cells were 1.95 nM, 1.63 nM and 88.2 nM, respectively. The “Bak, Bcl-2 and PARP protein after treatment” value in the assay on Bak, Bcl-2, cleaved PARP is “Bak and cleaved PARP expression was increased and Bcl-2 expression was inhibited”.
Consider `CCc1c2c(nc3ccc(OC(=O)N4CCC(N5CCCCC5)CC4)cc13)-c1cc3c(c(=O)n1C2)COC(=O)[C@]3(O)CC` [Irinotecan, irinotecan hydrochloride], for which the figures for the concentration for half-maximal inhibition (IC50) in the assay with SNU-1 cells, in the assay on HGC27 cells and with NCI-N87 cells were 3250 nM, 152 nM and 142 nM, respectively. Besides, the “Bak, Bcl-2 and PARP protein after treatment” value in the assay with Bak, Bcl-2, cleaved PARP is “apoptosis was not induced”.
